From article PMC10174618, “Monoterpenoid aryl hydrocarbon receptor allosteric antagonists protect against ultraviolet skin damage in female mice” (Nature Communications, 2023)

What was measured:
Assay in all cases: biochemical
Set-up in all cases: KINOMEscan scanMAX active site-directed competition binding assay, percent of control, 468 kinases
Details in all cases: competition binding, percent of control
DYRK1A = DYRK1A (Homo sapiens, UniProt Q13627)
How it was run: (§1)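 KINOMEscan active site-directed competition binding assay against 468 human kinases with 100 μM S-carvone. Binding expressed as % of control, with 35% of control as the inhibition threshold.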

EGFR(T790M) = EGFR(T790M) (Homo sapiens, UniProt P00533, T790M)
How it was run: as §1

HCK = HCK (Homo sapiens, UniProt P08631)
How it was run: as §1

YANK3 = molecular target: T1, YANK3 (Homo sapiens, UniProt Q86UX6)
T1 construct: gene STK32C
How it was run: as §1

TAOK3 = TAOK3 (Homo sapiens, UniProt Q9H2K8)
How it was run: as §1

MAP3K1 = MAP3K1 (Homo sapiens, UniProt Q13233)
How it was run: as §1

MAP4K4 = MAP4K4 (Homo sapiens, UniProt O95819)
How it was run: as §1

MLK2 = molecular target: T2, MLK2 (Homo sapiens, UniProt Q02779)
T2 construct: gene MAP3K10
How it was run: as §1

PIP5K2C = molecular target: T3, PIP5K2C (Homo sapiens, UniProt Q8TBX8)
T3 construct: gene PIP4K2C
How it was run: as §1

[1] = molecular target: T4, RSK4(Kin.Dom.2-C-terminal) (Homo sapiens, UniProt Q9UK32)
T4 construct: gene RPS6KA6; Kin.Dom.2-C-terminal
How it was run: as §1

SGK2 = SGK2 (Homo sapiens, UniProt Q9HBY8)
How it was run: as §1

CDK4-cyclinD3 = molecular target: T5, CDK4-cyclinD3 (Homo sapiens, UniProt P11802)
T5 construct: cyclinD3
How it was run: as §1

YSK1 = molecular target: T6, YSK1 (Homo sapiens, UniProt O00506)
T6 construct: gene STK25
How it was run: as §1

PRKD1 = PRKD1 (Homo sapiens, UniProt Q15139)
How it was run: as §1

FGFR4 = FGFR4 (Homo sapiens, UniProt P22455)
How it was run: as §1

MST1R = MST1R (Homo sapiens, UniProt Q04912)
How it was run: as §1

WEE1 = WEE1 (Homo sapiens, UniProt P30291)
How it was run: as §1

MAST1 = MAST1 (Homo sapiens, UniProt Q9Y2H9)
How it was run: as §1

CAMK1D = CAMK1D (Homo sapiens, UniProt Q8IU85)
How it was run: as §1

PRKD2 = PRKD2 (Homo sapiens, UniProt Q9BZL6)
How it was run: as §1

LIMK1 = LIMK1 (Homo sapiens, UniProt P53667)
How it was run: as §1

WEE1, sequence (P30291 whole entry): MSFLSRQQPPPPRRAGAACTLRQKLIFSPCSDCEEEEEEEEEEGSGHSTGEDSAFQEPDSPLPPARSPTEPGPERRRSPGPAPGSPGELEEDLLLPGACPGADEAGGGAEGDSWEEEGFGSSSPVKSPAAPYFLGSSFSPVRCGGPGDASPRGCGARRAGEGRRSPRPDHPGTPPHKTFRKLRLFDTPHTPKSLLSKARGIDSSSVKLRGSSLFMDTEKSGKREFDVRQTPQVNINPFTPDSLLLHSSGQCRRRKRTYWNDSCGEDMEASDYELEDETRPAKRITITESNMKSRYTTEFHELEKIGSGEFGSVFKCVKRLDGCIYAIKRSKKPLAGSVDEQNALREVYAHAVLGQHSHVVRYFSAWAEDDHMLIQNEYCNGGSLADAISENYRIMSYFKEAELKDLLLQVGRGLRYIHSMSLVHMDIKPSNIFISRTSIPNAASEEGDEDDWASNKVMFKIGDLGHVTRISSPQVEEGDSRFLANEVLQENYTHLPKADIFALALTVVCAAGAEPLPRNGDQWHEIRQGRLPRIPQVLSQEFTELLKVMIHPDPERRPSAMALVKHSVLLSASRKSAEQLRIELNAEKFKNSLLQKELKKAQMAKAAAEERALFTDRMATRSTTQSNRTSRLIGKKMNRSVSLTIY
T2 sequence (Q02779 whole entry): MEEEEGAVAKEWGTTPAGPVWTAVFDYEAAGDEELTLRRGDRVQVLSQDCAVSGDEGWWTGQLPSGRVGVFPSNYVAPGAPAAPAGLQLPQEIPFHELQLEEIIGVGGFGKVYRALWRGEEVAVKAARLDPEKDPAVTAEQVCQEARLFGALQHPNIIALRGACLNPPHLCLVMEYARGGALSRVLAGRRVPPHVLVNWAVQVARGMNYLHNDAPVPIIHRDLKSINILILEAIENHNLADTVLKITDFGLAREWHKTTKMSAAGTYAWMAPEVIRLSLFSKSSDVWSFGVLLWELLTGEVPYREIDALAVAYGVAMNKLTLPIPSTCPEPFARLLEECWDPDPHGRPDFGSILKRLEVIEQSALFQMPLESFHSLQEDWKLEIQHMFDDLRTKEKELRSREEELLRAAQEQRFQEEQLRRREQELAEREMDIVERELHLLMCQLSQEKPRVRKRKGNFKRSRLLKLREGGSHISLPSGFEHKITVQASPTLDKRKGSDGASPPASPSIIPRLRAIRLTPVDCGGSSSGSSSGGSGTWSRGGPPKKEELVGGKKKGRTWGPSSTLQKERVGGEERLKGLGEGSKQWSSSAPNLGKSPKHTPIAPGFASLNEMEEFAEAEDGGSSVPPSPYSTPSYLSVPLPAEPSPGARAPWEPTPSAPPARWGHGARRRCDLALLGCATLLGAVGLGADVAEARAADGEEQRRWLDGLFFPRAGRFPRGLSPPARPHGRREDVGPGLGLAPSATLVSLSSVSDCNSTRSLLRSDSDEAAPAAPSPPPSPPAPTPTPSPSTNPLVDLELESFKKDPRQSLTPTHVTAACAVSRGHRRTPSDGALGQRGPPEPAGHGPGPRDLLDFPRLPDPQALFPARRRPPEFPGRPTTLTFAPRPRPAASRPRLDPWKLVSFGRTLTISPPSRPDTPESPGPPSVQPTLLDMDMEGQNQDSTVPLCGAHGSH
MAP3K1, sequence (Q13233 whole entry): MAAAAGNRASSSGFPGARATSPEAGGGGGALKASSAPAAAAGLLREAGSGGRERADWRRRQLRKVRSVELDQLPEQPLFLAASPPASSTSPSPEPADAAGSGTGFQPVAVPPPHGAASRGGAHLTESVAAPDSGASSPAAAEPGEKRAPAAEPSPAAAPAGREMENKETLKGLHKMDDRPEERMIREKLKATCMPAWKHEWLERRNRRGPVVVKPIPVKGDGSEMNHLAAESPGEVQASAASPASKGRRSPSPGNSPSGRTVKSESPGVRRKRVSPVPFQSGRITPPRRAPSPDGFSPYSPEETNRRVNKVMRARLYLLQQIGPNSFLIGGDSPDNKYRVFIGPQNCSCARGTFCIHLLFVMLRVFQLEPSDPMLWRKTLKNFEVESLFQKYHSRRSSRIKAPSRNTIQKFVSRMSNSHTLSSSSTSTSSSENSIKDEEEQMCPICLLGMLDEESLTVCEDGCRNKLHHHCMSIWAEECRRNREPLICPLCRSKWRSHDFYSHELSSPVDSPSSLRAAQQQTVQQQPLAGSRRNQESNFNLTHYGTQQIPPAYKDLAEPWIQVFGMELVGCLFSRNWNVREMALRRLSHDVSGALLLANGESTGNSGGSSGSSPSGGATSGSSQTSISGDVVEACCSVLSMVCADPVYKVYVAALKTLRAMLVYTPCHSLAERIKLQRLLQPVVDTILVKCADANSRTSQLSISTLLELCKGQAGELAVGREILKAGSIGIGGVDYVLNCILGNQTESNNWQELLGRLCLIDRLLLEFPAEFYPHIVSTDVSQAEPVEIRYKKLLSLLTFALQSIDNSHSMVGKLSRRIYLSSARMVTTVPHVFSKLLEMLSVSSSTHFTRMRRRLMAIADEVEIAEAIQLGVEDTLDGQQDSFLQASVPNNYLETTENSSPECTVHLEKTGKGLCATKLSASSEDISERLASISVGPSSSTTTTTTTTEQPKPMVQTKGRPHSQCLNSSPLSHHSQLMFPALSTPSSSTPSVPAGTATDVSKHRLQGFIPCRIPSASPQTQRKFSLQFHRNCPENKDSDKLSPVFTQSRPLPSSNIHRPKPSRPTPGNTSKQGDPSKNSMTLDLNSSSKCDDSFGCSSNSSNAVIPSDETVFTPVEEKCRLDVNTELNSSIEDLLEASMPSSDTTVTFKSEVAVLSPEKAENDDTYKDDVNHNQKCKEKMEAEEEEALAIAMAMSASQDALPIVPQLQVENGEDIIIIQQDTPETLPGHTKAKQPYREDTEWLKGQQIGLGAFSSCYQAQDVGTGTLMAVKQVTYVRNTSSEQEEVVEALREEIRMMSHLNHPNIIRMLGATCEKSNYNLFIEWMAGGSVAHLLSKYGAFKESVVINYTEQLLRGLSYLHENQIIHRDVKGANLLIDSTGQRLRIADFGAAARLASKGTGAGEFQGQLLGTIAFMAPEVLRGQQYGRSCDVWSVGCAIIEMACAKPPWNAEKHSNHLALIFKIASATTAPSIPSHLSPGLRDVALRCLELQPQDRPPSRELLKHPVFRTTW
TAOK3, sequence (Q9H2K8 whole entry): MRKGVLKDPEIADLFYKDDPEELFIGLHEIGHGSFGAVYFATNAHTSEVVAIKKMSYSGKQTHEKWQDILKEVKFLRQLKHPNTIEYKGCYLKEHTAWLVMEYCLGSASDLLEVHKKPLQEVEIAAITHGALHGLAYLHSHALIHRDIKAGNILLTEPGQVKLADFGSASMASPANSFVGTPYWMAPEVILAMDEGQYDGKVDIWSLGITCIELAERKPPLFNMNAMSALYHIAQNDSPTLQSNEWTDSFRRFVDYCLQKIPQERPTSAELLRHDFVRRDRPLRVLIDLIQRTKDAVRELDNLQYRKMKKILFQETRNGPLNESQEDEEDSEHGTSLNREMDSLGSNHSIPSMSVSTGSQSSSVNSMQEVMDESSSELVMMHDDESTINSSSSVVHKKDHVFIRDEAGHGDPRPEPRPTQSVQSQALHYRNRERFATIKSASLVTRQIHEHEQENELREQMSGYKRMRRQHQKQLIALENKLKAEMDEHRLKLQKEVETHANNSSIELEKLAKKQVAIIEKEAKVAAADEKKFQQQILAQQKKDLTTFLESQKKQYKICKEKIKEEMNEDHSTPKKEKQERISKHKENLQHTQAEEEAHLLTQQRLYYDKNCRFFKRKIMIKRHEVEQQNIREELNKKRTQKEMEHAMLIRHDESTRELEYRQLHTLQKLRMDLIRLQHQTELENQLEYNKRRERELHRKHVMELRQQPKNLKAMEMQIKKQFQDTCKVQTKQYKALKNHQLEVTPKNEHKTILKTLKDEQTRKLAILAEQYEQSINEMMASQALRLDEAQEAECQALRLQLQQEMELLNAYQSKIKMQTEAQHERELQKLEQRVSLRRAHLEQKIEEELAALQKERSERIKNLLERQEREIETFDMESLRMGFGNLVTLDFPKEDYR
PRKD2, sequence (Q9BZL6 whole entry): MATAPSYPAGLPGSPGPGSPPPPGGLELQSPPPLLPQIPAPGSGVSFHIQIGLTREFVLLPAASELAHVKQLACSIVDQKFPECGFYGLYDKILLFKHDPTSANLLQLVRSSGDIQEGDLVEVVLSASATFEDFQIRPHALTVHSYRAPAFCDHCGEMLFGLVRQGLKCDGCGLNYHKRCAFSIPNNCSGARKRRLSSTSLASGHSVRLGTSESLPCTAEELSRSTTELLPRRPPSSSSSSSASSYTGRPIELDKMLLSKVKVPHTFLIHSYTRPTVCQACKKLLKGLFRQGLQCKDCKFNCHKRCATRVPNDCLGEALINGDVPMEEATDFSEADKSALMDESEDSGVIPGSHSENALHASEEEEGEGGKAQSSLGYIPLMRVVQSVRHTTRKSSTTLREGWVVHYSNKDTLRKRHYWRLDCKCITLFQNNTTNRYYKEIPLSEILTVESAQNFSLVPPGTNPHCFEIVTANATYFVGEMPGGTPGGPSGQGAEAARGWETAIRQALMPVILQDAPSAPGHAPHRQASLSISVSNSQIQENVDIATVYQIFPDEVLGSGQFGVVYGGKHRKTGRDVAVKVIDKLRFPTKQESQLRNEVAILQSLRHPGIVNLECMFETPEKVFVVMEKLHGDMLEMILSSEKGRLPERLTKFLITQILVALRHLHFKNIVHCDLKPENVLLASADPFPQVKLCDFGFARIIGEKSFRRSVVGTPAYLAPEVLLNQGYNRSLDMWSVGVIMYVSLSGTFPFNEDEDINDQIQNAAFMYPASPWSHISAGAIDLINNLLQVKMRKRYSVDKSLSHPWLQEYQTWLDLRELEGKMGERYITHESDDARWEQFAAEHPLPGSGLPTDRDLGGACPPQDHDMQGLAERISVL

Compound: C=C(C)[C@H]1CC=C(C)C(=O)C1 [S-carvone]
- remaining binding at 100 µM (DYRK1A): 91%
- remaining binding at 100 µM (EGFR(T790M)): 64%
- remaining binding at 100 µM (HCK): 76%
- remaining binding at 100 µM (YANK3): 91%
- remaining binding at 100 µM (TAOK3): 73%
- remaining binding at 100 µM (MAP3K1): 60%
- remaining binding at 100 µM (MAP4K4): 85%
- remaining binding at 100 µM (MLK2): 83%
- remaining binding at 100 µM (PIP5K2C): 88%
- remaining binding at 100 µM [1]: 57%
- remaining binding at 100 µM (SGK2): 68%
- remaining binding at 100 µM (CDK4-cyclinD3): 86%
- remaining binding at 100 µM (YSK1): 73%
- remaining binding at 100 µM (PRKD1): 61%
- remaining binding at 100 µM (FGFR4): 92%
- remaining binding at 100 µM (MST1R): 65%
- remaining binding at 100 µM (WEE1): 81%
- remaining binding at 100 µM (MAST1): 75%
- remaining binding at 100 µM (CAMK1D): 83%
- remaining binding at 100 µM (PRKD2): 100%
- remaining binding at 100 µM (LIMK1): 89%
